{"source": "patent US20140148498A1", "about": "“METHODS AND COMPOSITIONS FOR THE TREATMENT OF MARFAN SYNDROME AND ASSOCIATED DISORDERS” (THE JOHNS HOPKINS UNIVERSITY, priority 2011, published 2014)", "key": {"WT mice": {"test_system": "WT mice", "assay": "Aortic root growth by echocardiography, 7 months of treatment, WT littermates", "assay_type": "in vivo", "method": "A head-to-head comparison of ACEi versus ARBs was performed. Fbn1^C1039G/+ mice and WT littermates were treated with hemodynamically equivalent doses (FIG. 8) of either the ACEi enalapril (10 to 15 mg/kg of body weight per day) or the ARB losartan (40 to 60 mg/kg per day) (R. D. Patten et al., Clin. Sci 104, 109 (2003)), beginning at 8 weeks of age, and were assessed with serial echocardiograms. […] It is noteworthy that losartan reduced aortic root growth in Fbn1^C1039G/+ mice, but had no effect in WT littermates (P=0.27). […] Whether AT2 signaling is needed to achieve losartan's full therapeutic benefit was assessed. […]\n(§1) All mice were cared for under strict compliance with the Animal Care and Use Committee of the Johns Hopkins University School of Medicine. […] Mice that were analyzed for Western Blot analysis had their proximal ascending aortas (root to right brachiocephalic trunk) immediately dissected out, flash frozen in liquid nitrogen and stored at −80d until further processing. Mice that were analyzed for aortic histology had latex injected under low pressure into the left ventricular apex until it was visible in the descending abdominal aorta. Mice that were analyzed for lung histology had their trachea intubated with a 20-gauge blunted needle, and 0.5% agar was infused under a low and constant pressure to gradually inflate the lungs. […]"}, "p38": {"test_system": "p38", "assay": "Western blot of proximal ascending aorta: p38 activation (Examples 4-5)", "assay_type": "in vivo, mice", "text": "All mice were cared for under strict compliance with the Animal Care and Use Committee of the Johns Hopkins University School of Medicine. The Fbn1^C1039G/+ and AT2KO lines were maintained n a pure C57BL/6 background (backcrossed for greater than 9 generations), allowing for valid comparisons. In order to further accommodate the potential for temporal- or background-specified variation, all comparisons were made between contemporary littermates when possible. The AT21C0 mice were obtained as a generous gift from Dr. Inagami (T. Ichiki et al., Nature 377, 748 (1995)). The Agtr2 gene resides on the X chromosome and therefore we used either male mice carrying the mutated allele (who are hemizygous) or homozygous females, both of which have been previously shown to be functionally null for the AT2 receptor (T. Ichiki et al., Nature 377, 748 (1995)). Mice were sacrificed with an inhalation overdose of halothane (Sigma-Aldrich, St. Louis). Mice underwent immediate laparotomy, descending abdominal aortic transection, and PBS (pH 7.4) was infused through the right and left ventricles to flush out the blood. Mice that were analyzed for Western Blot analysis had their proximal ascending aortas (root to right brachiocephalic trunk) immediately dissected out, flash frozen in liquid nitrogen and stored at −80d until further processing. Mice that were analyzed for aortic histology had latex injected under low pressure into the left ventricular apex until it was visible in the descending abdominal aorta. Mice that were analyzed for lung histology had their trachea intubated with a 20-gauge blunted needle, and 0.5% agar was infused under a low and constant pressure to gradually inflate the lungs. […]\nMouse aortic root and ascending aortas (aortic root excluding the aortic valve to origin of right brachiocephalic trunk) were harvested, snap-frozen in liquid nitrogen and stored at −80° C. until processed. […] Equal protein loading of samples was determined by a protein assay (BioRad, CA), and confirmed by probing with antibodies against β-Actin or GAPDH (Sigma, Mo.). […]"}, "AT2KO:Fbn1^C1039G/+ mice": {"test_system": "AT2KO:Fbn1^C1039G/+ mice", "assay": "Aortic root growth by echocardiography, 7 months of treatment, MFS mice lacking AT2", "assay_type": "in vivo", "method": "A head-to-head comparison of ACEi versus ARBs was performed. Fbn1^C1039G/+ mice and WT littermates were treated with hemodynamically equivalent doses (FIG. 8) of either the ACEi enalapril (10 to 15 mg/kg of body weight per day) or the ARB losartan (40 to 60 mg/kg per day) (R. D. Patten et al., Clin. Sci 104, 109 (2003)), beginning at 8 weeks of age, and were assessed with serial echocardiograms. […] It is noteworthy that losartan reduced aortic root growth in Fbn1^C1039G/+ mice, but had no effect in WT littermates (P=0.27). […] Whether AT2 signaling is needed to achieve losartan's full therapeutic benefit was assessed. AT2KO:Fbn1^C1039G/+ mice were treated with losartan from 8 weeks of age and followed by serial echocardiography until they were killed at 9 months of age (FIG. 2C).\nas §1, with “Medicine. The Fbn1^C1039G/+ and AT2KO lines were maintained n a pure C57BL/6 background (backcrossed for greater than 9 generations), allowing for valid comparisons.” for “Medicine.”\nMice were started on medication at 8 weeks of age and continued for 7 months. […] Blood pressures were analyzed by taking 20 tail cuff blood pressures per day over 5 days in each mouse to habituate the mice to the tail cuff pressure system, and the blood pressures obtained on the last day were averaged. At least 4 mice for each treatment group were analyzed. […]"}}, "note": "Entries after “also recorded” stand apart in the source; their conditions may differ.", "data": [{"smiles": "CCCCc1nc(Cl)c(CO)n1Cc1ccc(-c2ccccc2-c2nn[nH]n2)cc1", "note": "[losartan]", "values": [{"measurement": "Aortic root growth over 7 months of treatment", "setting": "WT mice; WT littermates", "value": "had no effect"}, {"measurement": "Final absolute aortic root diameter", "setting": "WT mice; WT mice, 7 months of treatment, FIG. 2B, mean +/- 2 SEM", "value": "1.77+/−0.15 mm"}, {"measurement": "p38 activation", "setting": "p38; Fbn1^C1039G/+ mice, FIG. 13", "value": "do not affect p38 activation; also recorded: neither had any effect"}, {"measurement": "p38 activation", "setting": "p38; treated AT2KO:Fbn1^C1039G/+ versus treated Fbn1^C1039G/+ mice, FIG. 14", "value": "no significant change; also recorded: no significant difference"}, {"measurement": "Aortic root growth over 7 months of treatment", "setting": "AT2KO:Fbn1^C1039G/+ mice; AT2KO:Fbn1^C1039G/+ mice", "value": "modest reduction in aortic root growth; also recorded: diminished effectiveness"}, {"measurement": "Final absolute aortic root diameter", "setting": "AT2KO:Fbn1^C1039G/+ mice; AT2KO:Fbn1^C1039G/+ mice, 7 months of treatment, FIG. 2C, mean +/- 2 SEM", "value": "2.06+/−0.07 mm"}, {"measurement": "Decrease in aortic root growth in treated AT2KO:Fbn1^C1039G/+ mice relative to that seen in Fbn1^C1039G/+ animals that expressed AT2", "setting": "AT2KO:Fbn1^C1039G/+ mice; losartan from 8 weeks to 9 months of age, P<0.001", "value": 40, "unit": "%"}]}]}
